# Test results from patent publication US20250320190A1, “Novel Inhibitors of Leucine Carboxyl Methyltransferase-1 (LCMT-1) and Methods of Use Thereof” (Temple University-Of The Commonwealth System of Higher …, priority 2024, published 2025).
# Tests used:
# [1] = Plasma stability; assay type: in vitro ADME; details: mouse plasma; read-out: Plasma Stability (t1/2)
# Text: (§1) There is no cause for concern at this stage since there are multiple strategies and reagents for enhancing aqueous solubility for animal in vivo studies (Savjani, K. T., A. K. Gajjar and J. K. Savjani, 2012, ISRN Pharm 2012: 195727.). […] While target tissue exposure is dependent on free, unbound fractions in the plasma, plasma protein binding can protect compounds from hepatic metabolism. Thus, in vivo metabolism and excretion are often determined by a balance between these two properties. In vivo half-life is a complicated property impacted upon by multiple factors and is difficult to predict. […] While these numbers are somewhat low for a drug candidate, they are acceptable for proof of concept tool molecules which can be given multiple times per day and at higher doses to saturate metabolism.
# [2] = Kinetic solubility; assay type: physicochemical; details: 2% dimethylsulfoxide/PBS, aqueous buffer, kinetic from dmso stock; read-out: Max. Kinetic Solubility
# Text: as §1
# [3] = tested on: MCF7 cells; experiment: Western blots; assay type: cell-based, human; details: 20 μM, lysates after 2, 4, 6, 8 and 12 hours
# Experimental: (§2) MCF7, MDA-MB-231 and Rosi cells were treated with Compound 1 or Compound 2 at a concentration of 20 μM in complete medium, and lysates were harvested after 2, 4, 6, 8 and 12 hours in radioimmunoprecipitation assay buffer containing protease inhibitors (Boster Bio, Pleasanton, California, catalog #AR1182-1) and phosphatase inhibitors (Santa Cruz Biotechnology catalog #sc-45044 and #sc-45045). Protein concentrations were measured with a bicinchoninic acid assay (G-Biosciences, Saint Louis, Missouri). Fifty micrograms of each lysate were used for bis-tris polyacrylamide gel electrophoresis. Resolved lysates were transferred to nitrocellulose membranes. Membranes were blocked with TBS with 5% bovine serum albumin before incubation with primary antibodies.
# (§3) Antibodies obtained from Cell Signaling Technology (Danvers Massachusetts) were, anti-PP2Ac (catalog #2038, 1:1,000 dilution), anti-phospho-adenosine monophosphate-activated protein kinase (pAMPKα2 threonine 172, catalog #2535, 1:1,000 dilution). Antibodies obtained from Proteintech (Rosemont, Illinois) include anti-phospho-receptor-interacting serine/threonine protein kinase-1 antibodies (pRIPK1 serine 161 (catalog #66854-1-Ig, 1:1,000 dilution) and pRIPK1 serine 166 (catalog #28252-1-AP, 1:10,000 dilution), anti-mixed lineage kinase domain like pseudokinase (MLKL, catalog #66675-1-Ig, 1:5,000 dilution), anti-AMPKα2, anti-phospho-acetyl-coenzyme A carboxylase (pACC1 serine 79, catalog #29119-1-AP, 1:1,000 dilution), anti-ACC1 (catalog #21923-1-AP, 1:2,000 dilution) and anti-β-actin (catalog #66009-1-Ig, 1:50,000 dilution). The anti-RIPKI antibody was obtained from AbClonal (Woburn, Massachusetts, catalog #A7414, 1:750 dilution). The anti-phospho-MLKL antibody was obtained from R&D Systems (Minneapolis, Minnesota, 1:1,000 dilution). The LCMT-1 antibody was obtained from Origene (Rockville, Maryland, catalog #TA503127S, 1:2,000 dilution). Appropriate IR-dye secondary antibodies were used (Alexa Fluor® 790-conjugated anti-mouse (catalog #115-655-146, 1:50,000 dilution), Alexa Fluor® 680-conjugated anti-mouse (catalog #115-625-146, 1:50,000 dilution), and Alexa Fluor® 680-conjugated anti-rabbit (catalog #115-625-144, 1:50,000 dilution) were obtained from Jackson ImmunoResearch Laboratories (West Grove, Pennsylvania). Band densities were normalized to β-actin, the endogenous control. At least five replicates were used for statistical analyses.
# [4] = tested on: Rosi cells; experiment: Western blots; assay type: cell-based, human; details: 20 μM, Compound 2 significant at 6 hours
# Experimental: as §2, §3
# [5] = tested on: MDA-MB-231 cells; experiment: Western blots; assay type: cell-based, human; details: 20 μM, Compound 2 significant at 4 hours
# Experimental: as §2, §3
# [6] = biological target: T1, rhLCMT-1 (Homo sapiens, UniProt Q9UIC8); experiment: rhLCMT-1 activity assay (dot immunoblot); assay type: biochemical; details: each inhibitor 50 μM; 20 μM SAM; 37° C. for 30 minutes
# T1 construct: purchased SignalChem (Richmond, British Columbia, Canada)
# T1 sequence (Q9UIC8 whole entry): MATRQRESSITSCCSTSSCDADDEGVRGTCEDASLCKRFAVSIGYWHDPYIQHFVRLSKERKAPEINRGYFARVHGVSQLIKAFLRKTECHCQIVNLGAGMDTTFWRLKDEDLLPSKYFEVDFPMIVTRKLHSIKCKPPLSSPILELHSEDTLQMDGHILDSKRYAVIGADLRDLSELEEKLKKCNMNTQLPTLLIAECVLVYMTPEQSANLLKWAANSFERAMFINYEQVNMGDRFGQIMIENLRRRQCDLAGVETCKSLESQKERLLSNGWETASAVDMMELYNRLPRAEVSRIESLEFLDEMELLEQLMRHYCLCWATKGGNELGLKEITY
# Experimental: Recombinant human LCMT-1 (rhLCMT-1) and rhPP2Ac were obtained from SignalChem (Richmond, British Columbia, Canada). Methyltransferase assays were performed with 100 ng rhLCMT-1 and 91.62 ng rhPP2Ac (2:1 molar ratio) (28) in reaction buffer containing 20 mM Tris (pH 8.0), 50 mM NaCl, 1 mM EDTA. rhLCMT-1 was incubated with Compound 1 (Chemspace, San Jose, California), Compound 2 (Akos Consulting and Solutions, Amtsgericht, Freiburg, Germany) or sinefungin, a SAM analogue, (Active Motif, Carlsbad, California), each at 50 μM final concentration, for 10 minutes at room temperature. rhPP2Ac was added to the reactions with 20 μM (final concentration) SAM (New England Biolabs, Ipswich, Massachusetts, FIG. 9). […] Reactions were incubated at 37° C. for 30 minutes (FIG. 10). Because the inhibitors gave false positive results with the secondary reactions used in colorimetric and bioluminescent methyltansferase assays, LCMT-1 activity was assessed using dot immunoblots. Reactions were applied to nitrocellulose membranes (Cytiva, Marlborough, Massachusetts). […] Membranes were treated with infrared (IR)-dye anti-mouse antibody (Li-Cor, Lincoln, Nebraska, catalog #926-32210, 1:20,000 dilution) and densities were measured with Li-Cor Image Studio (version 5.2) software. rhLCMT-1 inhibition assays were performed three times, each time with five replicates for each condition.
# [7] = Liver microsomal stability; assay type: in vitro ADME
# Text: as §1
# [8] = Plasma protein binding; assay type: in vitro ADME; details: read-out: Plasma Protein Binding (bound fraction) (converted)
# Text: as §1
# [9] = tested on: HS-5 cells; experiment: Cytotoxicity assay (calcein-AM); assay type: cell-based
# Experimental: (§4) HS-5, HEK-293, MCF7, MDA-MB-231 and Rosi cells were seeded in 96-well optical bottom tissue culture plates (Corning, New York) at a density of 2.5×10^3 cells/well. After 24 hours, the media were changed to media containing LB-100 (Cayman Chemical Company, Ann Arbor, Michigan) or Compound 2 at various concentrations (50-0.31 μM). Control cells were given fresh media. After 48 hours the media were aspirated and plates were washed with warmed Dulbecco's phosphate-buffered saline (DPBS) with calcium and magnesium (Sigma-Aldrich, catalog #D1283). Cells were stained with 3 μM calcein-AM (AAT Bioquest, Pleasanton, California, catalog #22002) in DPBS for 30 minutes in the dark at 37° C. Plates were immediately read with a Biotek fluorescent plate reader (excitation 485 nm, emission 520 nm). The cytotoxicity assays were performed at least three times, each time with six replicates per condition.
# [10] = tested on: HEK-293 cells; experiment: Cytotoxicity assay (calcein-AM); assay type: cell-based
# Experimental: as §4
# [11] = tested on: Rosi cells; experiment: Annexin V assay; assay type: cell-based, human; details: 5-20 μM, 48 hours
# Experimental: (§5) MCF7, MDA-MB-231 and Rosi cells were treated with LB-100 and Compound 2 at 5-20 μM concentrations. After 48 hours, cells were lifted with Accutase and washed twice with PBS (pH 7.4) with 10% FBS. Cells were resuspended in annexin V binding buffer (10 mM HEPES (pH 7.4), 140 mM NaCl and 2.5 mM CaCl2)) and labeled with FITC-anti-Annexin V and 7-AAD (Biolegend, FITC Annexin V Apoptosis Detection Kit with 7-AAD, catalog #640922). Cell surface annexin V expression was assessed with flow cytometry.
# [12] = tested on: MDA-MB-231 cells; experiment: Annexin V assay; assay type: cell-based, human; details: 5-20 μM, 48 hours
# Experimental: as §5
# [13] = tested on: MCF7 cells; experiment: Cell cycle analysis (BrdU flow cytometry); assay type: cell-based, human; details: 20 μM, 24 hours
# Experimental: (§6) MCF7, MDA-MB-231 and Rosi cells were seeded in 6-well tissue culture plates (Celltreat) at a density of 5×10^5 cells per well. After 24 hours, the DMEM was changed to media containing 20 μM LB-100 or Compound 2. Control cells were given fresh media. After 24 hours, cells were labeled with 50 μM bromodeoxyuridine (BrdU, BioGems, Westlake Village, California, catalog #5911439). Cells were lifted with 0.25% trypsin, 2.21 mM ethylenediaminetetraacetic acid (Corning catalog #25-053-CI) after 4 hours and fixed with 70% ethanol overnight at 4° C. Cells were pelleted and cellular DNA was denatured with HCl. After neutralization with 1 M Tris, pH 8.5, cells were labeled with FITC-anti-BrdU (Biolegend, San Diego, California, catalog #364104, 5 μL/100 μL cell suspension) and 7-aminoactinomycin-D (7-AAD, Biolegend, catalog #420404, 1 μL/100 μL cell suspension). Cells were analyzed with a Becton-Dickinson FACSymphony™ flow cytometer. Cell cycle analyses were performed three times.
# [14] = tested on: Rosi cells; experiment: Cell cycle analysis (BrdU flow cytometry); assay type: cell-based, human; details: 20 μM, 24 hours
# Experimental: as §6
# [15] = tested on: MDA-MB-231 cells; experiment: Cell cycle analysis (BrdU flow cytometry); assay type: cell-based, human; details: 20 μM, 24 hours
# Experimental: as §6
# [16] = tested on: MCF7 cells; experiment: Colony forming assay; assay type: cell-based, human; details: 50-3.25 μM, one week
# Experimental: (§7) MCF7, MDA-MB-231 and Rosi cells were seeded in 96-well tissue culture plates (Celltreat, Pepperell, Massachusetts) at a density of 90 cells per well (Mayr et al. Int J Mol Sci. 2018; 19(3)). After 24 hours, the media were changed to media containing LB-100 or Compound 2 at various concentrations (50-3.25 μM). Control cells were given fresh media. After one week the media were aspirated and the wells were washed with PBS. Cells were stained with crystal violet solution (0.25 g crystal violet in 20% methanol) for 10 minutes. The wells were washed 6 times with PBS to remove excess crystal violet. Colonies were counted with an ECHO Revolve hybrid microscope at 1.5× magnification. There were ten replicates for each condition.
# [17] = tested on: Rosi cells; experiment: Colony forming assay; assay type: cell-based, human; details: 50-3.25 μM, one week
# Experimental: as §7
# [18] = tested on: MDA-MB-231 cells; experiment: Colony forming assay; assay type: cell-based, human; details: 50-3.25 μM, one week
# Experimental: as §7
# [19] = tested on: MCF7 cells; experiment: Cytotoxicity assay (calcein-AM); assay type: cell-based, human
# Experimental: as §4
# [20] = tested on: MDA-MB-231 cells; experiment: Cytotoxicity assay (calcein-AM); assay type: cell-based, human; details: Homo sapiens, MDA-MB-231, 48 h, read-out: Log [μM] EC50 (converted)
# Experimental: as §4
# [21] = tested on: Rosi cells; experiment: Cytotoxicity assay (calcein-AM); assay type: cell-based, human
# Experimental: as §4, with “After 24 hours, the media were changed to media containing LB-100 (Cayman Chemical Company, Ann Arbor, Michigan) or Compound 2 at various concentrations (50-0.31 μM).” left out
compound,measurement,setting,value
"O=C(COc1cccc2ccccc12)Nc1ccccc1O [Compound 1, N-(2-Hydroxyphenyl)-2-(1-naphthalenyloxy)acetamide]",half-life,[1],> 180 min
same,solubility kinetic,[2],27.1 µM
same,PP2Ac methylation,[3],did not increase PP2Ac methylation
same,PP2Ac methylation,[4],did not increase PP2Ac methylation
same,PP2Ac methylation,[5],did not increase PP2Ac methylation
same,methylation of rhPP2Ac by rhLCMT-1,[6],did not significantly inhibit PP2Ac methylation
same,half-life,"[7]; human liver microsomes, read-out: Liver Microsomal Stability (t1/2) Human",45.7 min
same,half-life,"[7]; mouse liver microsomes, read-out: Liver Microsomal Stability (t1/2) Mouse",20 min
same,fraction unbound,[8],0.033
"CN1CCN(C(=O)C2C(C(=O)O)[C@H]3CC[C@@H]2O3)CC1 (some centres unmarked) [LB-100, reference compound]",EC50,"[9]; HS5, 48 h, read-out: Log [μM] EC50 (converted)",36.3 µM
same,concentration at which cytotoxicity was significant,"[9]; human, 48 h",20 µM
same,concentration at which survival was significantly inhibited,"[10]; HEK-293, 48 hours",20 µM
same,EC50,"[10]; Homo sapiens, HEK293, 48 h, read-out: Log [μM] EC50 (converted)",21.4 µM
same,apoptosis (cell surface annexin V expression),[11],induced apoptosis
same,apoptosis (cell surface annexin V expression),[12],induced apoptosis
same,cell cycle effect,[13],induced G0/G1 arrest
same,cell cycle effect,[14],induced G2/M-phase arrest
same,cell cycle effect,[15],induced G2/M-phase arrest
same,clonogenic colony formation,[16],inhibited to a lesser extent
same,clonogenic colony formation,[17],inhibited colony formation
same,clonogenic colony formation,[18],inhibited colony formation
same,EC50,"[19]; Homo sapiens, MCF7, 48 h, read-out: Log [μM] EC50 (converted)",45.7 µM
same,inhibition of survival,"[19]; MCF7, concentrations tested 50-0.31 μM, 48 hours",Neither LB-100 nor Compound 2 significantly inhibited survival
same,EC50,[20],6.76 µM
same,EC50,"[21]; Homo sapiens, 48 h, read-out: Log [μM] EC50 (converted)",21900 µM
same,concentration at which survival was significantly inhibited,"[21]; Rosi, 48 hours",20 µM
